Data reported in publication PMC11288129, “Diversely evolved xibalbin variants from remipede venom inhibit potassium channels and activate PKA-II and Erk1/2 signaling” (BMC Biology, 2024).
Marks after values point to notes of the source that are not given here. Positions of bridges follow the written chain, without caps; N, C: chain ends. No end group written: not given here.

Legend:
rNav1.2 = experiment: TEVC current-voltage relationship (Vhalf), Nav1.2; assay type: cell-based, rat; parameters: Vhalf, toxin inactivation, Nav1.2 / Vhalf, toxin activation, Nav1.2: unit not given here; details: for Vhalf, toxin activation, Nav1.2 / Vhalf, toxin inactivation, Nav1.2: 1 µM
Text: (§1) For the expression of Kv channels rat Kv1.1 (GenBank accession number: NM_173095 [88, 89]), rKv1.2 (NM_012970 [90, 91]), human Kv1.3 (NM_002232 [92, 93]), rKv1.4 (NM_012971 [94, 95]), rKv1.6 (NM_023954 [96, 97]), hKv2.1 (NM_004975 [98, 99]), hKv3.1 (NM_004976 [100, 101]), rKv4.2 (NM_031739 [102, 103]), hKv10.1 (NM_172362 [104, 105]), hERG1 [Kv11.1, (NM_000238 [106, 107])], and Shaker IR [from Drosophila melanogaster, (NM_167595 [108, 109])], Nav channels [rNav1.2 (NM_012647 [42, 110]), rNav1.4 (NM_013178 [111, 112]), hNav1.5 (NM_198056 [113, 114]), mNav1.6 (NM_001077499 [115, 116]), BgNav [from Blattella germanica, (DQ466887 [117, 118])] and the auxiliary subunits rβ1 (NM_001271045 [119, 120]), hβ1 (NM_001037 [121, 122]), and TipE [from D. melanogaster, (NM_079196 [109, 123])], and Cav channels hCav3.1 [124, 125], hCav3.2 [126, 127], and hCav3.3 [128, 129] in Xenopus oocytes, the linearized plasmids were transcribed using the T7 or SP6 mMESSAGEmMACHINE transcription kit (Ambion, Austin, TX, USA). Mature female animals were purchased from Nasco (Fort Atkinson, USA) and were housed in the Aquatic Facility (KU Leuven) in compliance with the regulations of the European Union (EU) concerning the welfare of laboratory animals as declared in Directive 2010/63/EU. The use of X. laevis oocytes was approved by the Animal Ethics Committee of the KU Leuven with the license number P186/2019. Stage V–VI oocytes were collected from anesthetized female X. laevis frog as previously described, with the frogs anesthetized by placement in 0.1% tricaine solution (amino benzoic acid ethyl ester; Merck, USA). Oocyte microinjection was performed using a microinjector (Drummond Scientifc®, USA), with a programmed cRNA injection volume of 4—50 nL, depending on the channel subtype. The oocytes were incubated in ND96 solution (96 mM NaCl, 2 mM KCl, 1.8 mM CaCl2, 2 mM MgCl2, and 5 mM HEPES, pH 7.4), supplemented with 50 mg/l gentamicin sulfate.
(§2) Electrophysiological measurements were performed at room temperature (18–22 °C) using the two-electrode voltage clamp (TEVC) technique. Data were obtained using a GeneClamp 500 amplifier (Axon Instruments, USA), and Clampex9 software (Axon Instruments), responsible for data acquisition and storage. Glass micropipettes were produced using glass capillaries (borosilicate WPI 1B120-6) and drawn in a WPI (World Precision Instruments, USA) manual stretcher. The bath and perfusion solutions were either the previously described ND96 (Nav and Kv channels) or calcium-free ND96 supplemented with 10 mM BaCl2 (Cav channels).
(§3) Whole-cell currents of oocytes were recorded 1 to 3 days after injection. Current and voltage electrodes were filled with 3 M KCl and their resistance was adjusted from 0.7 to 2.0 MΩ. Currents were sampled at 20 kHz (Nav channels) and 10 kHz (Kv and Cav channels) and filtered using a four-pole Bessel low-pass Bessel filter, at 1 kHz for sodium, and […] for potassium and calcium, except for the hERG ion channel, in which the currents were filtered at 1 kHz. Leak subtraction was performed using a -P/4 protocol. Kv1.x currents were evoked by 500 ms depolarizations to 0 mV followed by a 500-ms pulse to − 50 mV, from a holding potential of − 90 mV. Kv2.1, Kv3.1, and Kv4.2 currents were elicited by 500 ms pulses to + 20 mV from a holding potential of − 90 mV. Current traces of Kv10.1 were elicited by 2 s depolarization to 0 mV, from a holding potential of − 90 mV. Current traces of hERG1 channel were elicited by applying a + 40 mV prepulse for 2 s followed by a step of − 120 mV for 2 s. Sodium current traces were evoked by a 100 ms depolarization to 0 mV, from a holding potential of − 90 mV. The current–voltage (IV) relationships were determined by 100-ms step depolarizations between − 90 and + 40 mV, using 5 mV increments. […]

hCav3.3 = experiment: TEVC inhibition, Cav3.3; assay type: cell-based, human; parameters: unit not given here; details: 1 µM
Text: as §1, §2, §3

hKv2.1 = experiment: TEVC inhibition, Kv2.1; assay type: cell-based, human; parameters: unit not given here; details: 1 µM
Text: as §1, §2, §3

hCav3.1 = experiment: TEVC inhibition, Cav3.1; assay type: cell-based, human; parameters: unit not given here; details: 1 µM
Text: as §1, §2, §3

hNav1.5 = experiment: TEVC current-voltage relationship (Vhalf), Nav1.5; assay type: cell-based, human; parameters: Vhalf, toxin inactivation, Nav1.5 / Vhalf, toxin activation, Nav1.5: unit not given here; details: for Vhalf, toxin activation, Nav1.5 / Vhalf, toxin inactivation, Nav1.5: 1 µM
Text: as §1, §2, §3

rNav1.4 = experiment: TEVC inhibition, Nav1.4; assay type: cell-based, rat; details: 1 µM, Xenopus oocytes, ND96, 18–22 °C, mean ± SEM, n ≥ 3
Text: For the expression of Kv channels rat Kv1.1 (GenBank accession number: NM_173095 [88, 89]), rKv1.2 (NM_012970 [90, 91]), human Kv1.3 (NM_002232 [92, 93]), rKv1.4 (NM_012971 [94, 95]), rKv1.6 (NM_023954 [96, 97]), hKv2.1 (NM_004975 [98, 99]), hKv3.1 (NM_004976 [100, 101]), rKv4.2 (NM_031739 [102, 103]), hKv10.1 (NM_172362 [104, 105]), hERG1 [Kv11.1, (NM_000238 [106, 107])], and Shaker IR [from Drosophila melanogaster, (NM_167595 [108, 109])], Nav channels [rNav1.2 (NM_012647 [42, 110]), rNav1.4 (NM_013178 [111, 112]), hNav1.5 (NM_198056 [113, 114]), mNav1.6 (NM_001077499 [115, 116]), BgNav [from Blattella germanica, (DQ466887 [117, 118])] and the auxiliary subunits rβ1 (NM_001271045 [119, 120]), hβ1 (NM_001037 [121, 122]), and TipE [from D. melanogaster, (NM_079196 [109, 123])], and Cav channels hCav3.1 [124, 125], hCav3.2 [126, 127], and hCav3.3 [128, 129] in Xenopus oocytes, the linearized plasmids were transcribed using the T7 or SP6 mMESSAGEmMACHINE transcription kit (Ambion, Austin, TX, USA). […]
Whole-cell currents of oocytes were recorded 1 to 3 days after injection. […] The current–voltage (IV) relationships were determined by 100-ms step depolarizations between − 90 and + 40 mV, using 5 mV increments. […]

hKv10.1 = experiment: TEVC inhibition, Kv10.1; assay type: cell-based, human; parameters: unit not given here; details: 1 µM
Text: as §1, §2, §3

rKv1.4 = experiment: TEVC inhibition, Kv1.4; assay type: cell-based, rat; parameters: unit not given here; details: 1 µM
Text: as §1, §2, §3

Sequence	Vhalf, toxin activation, Nav1.2 (rNav1.2; replicate 1)	Vhalf, toxin inactivation, Nav1.2 (rNav1.2; replicate 1)	Vhalf, toxin activation, Nav1.2 (rNav1.2; replicate 2)	Vhalf, toxin inactivation, Nav1.2 (rNav1.2; replicate 2)	Vhalf, toxin activation, Nav1.2 (rNav1.2; replicate 3)	Vhalf, toxin inactivation, Nav1.2 (rNav1.2; replicate 3)	Vhalf, toxin activation, Nav1.2 (rNav1.2; replicate 4)	Vhalf, toxin inactivation, Nav1.2 (rNav1.2; replicate 4)	Inhibition data, Cav3.3 (hCav3.3; replicate 1)	Inhibition data, Cav3.3 (hCav3.3; replicate 2)	Inhibition data, Cav3.3 (hCav3.3; replicate 3)	Inhibition data, Cav3.3 (hCav3.3; replicate 4)	Inhibition data, Kv2.1 (hKv2.1; replicate 1)	Inhibition data, Kv2.1 (hKv2.1; replicate 2)	Inhibition data, Kv2.1 (hKv2.1; replicate 3)	Inhibition data, Kv2.1 (hKv2.1; replicate 4)	Inhibition data, Cav3.1 (hCav3.1; replicate 1)	Inhibition data, Cav3.1 (hCav3.1; replicate 2)	Inhibition data, Cav3.1 (hCav3.1; replicate 3)	Inhibition data, Cav3.1 (hCav3.1; replicate 4)	other results
KRSCIRRFGRCDHRPNDCCYNSSCRCNLWGSNCRCQRMGLFQKWGK (disulfide 4-19, 11-24, 18-35, 26-33) [xib13]	-21.2222	-50.4402	-22.3496	-54.6262	-23.8888	-52.3347	-19.606	-52.7049	0.0	0.0	0.0	0.0	0.0	0.0	0.0	0.0	0.0	0.0	0.0	0.0	Vhalf activation shift, Nav1.2 (rNav1.2; 1 µM versus control (ND96)): 1.5 mV; Vhalf activation shift, Nav1.5 (hNav1.5; 1 µM versus control (ND96)): 5.9*** mV; Vhalf, toxin activation, Nav1.5 (hNav1.5; replicate 1): -22.7699; Vhalf, toxin inactivation, Nav1.5 (hNav1.5; replicate 1): -59.4076; Vhalf, toxin activation, Nav1.5 (hNav1.5; replicate 2): -23.9735; Vhalf, toxin inactivation, Nav1.5 (hNav1.5; replicate 2): -59.2524; Vhalf, toxin activation, Nav1.5 (hNav1.5; replicate 3): -25.0967; Vhalf, toxin inactivation, Nav1.5 (hNav1.5; replicate 3): -59.4209; inhibition of Nav1.4 (rNav1.4): 33.0 ± 2.4%; Inhibition data, Kv10.1 (hKv10.1; replicate 1): 0.0; Inhibition data, Kv10.1 (hKv10.1; replicate 2): 0.0; Inhibition data, Kv10.1 (hKv10.1; replicate 3): 0.0; Inhibition data, Kv10.1 (hKv10.1; replicate 4): 0.0; Inhibition data, Kv1.4 (rKv1.4; replicate 1): 0.0; Inhibition data, Kv1.4 (rKv1.4; replicate 2): 0.0; Inhibition data, Kv1.4 (rKv1.4; replicate 3): 0.0; Inhibition data, Kv1.4 (rKv1.4; replicate 4): 0.0
RLFCIRHHKYCGHRPKRCCSGLFCRCNTFGTNCRCQSKGALGKLI (disulfide 4-19, 11-24, 18-35, 26-33) [xib1]	-16.7542	-48.4729	-15.666	-54.2238	-21.743	-57.3333	-24.4632	-61.3134	0.0	0.0	0.0	0.0	0.0	0.0	0.0	0.0	0.0	0.0	0.0	0.0	Vhalf inactivation shift, Nav1.5 (hNav1.5; 1 µM versus control (ND96)): 1.5 mV; Vhalf, toxin activation, Nav1.5 (hNav1.5; replicate 1): -27.2261; Vhalf, toxin inactivation, Nav1.5 (hNav1.5; replicate 1): -60.2865; Vhalf, toxin activation, Nav1.5 (hNav1.5; replicate 2): -20.8548; Vhalf, toxin inactivation, Nav1.5 (hNav1.5; replicate 2): -53.6522; Vhalf, toxin activation, Nav1.5 (hNav1.5; replicate 3): -24.2578; Vhalf, toxin inactivation, Nav1.5 (hNav1.5; replicate 3): -54.899; Vhalf, toxin activation, Nav1.5 (hNav1.5; replicate 4): -22.0356; Vhalf, toxin inactivation, Nav1.5 (hNav1.5; replicate 4): -51.823; inhibition of Nav1.4 (rNav1.4): 21.8 ± 3.3%; Inhibition data, Kv10.1 (hKv10.1; replicate 1): 0.0; Inhibition data, Kv10.1 (hKv10.1; replicate 2): 0.0; Inhibition data, Kv10.1 (hKv10.1; replicate 3): 0.0; Inhibition data, Kv10.1 (hKv10.1; replicate 4): 0.0; Inhibition data, Kv1.4 (rKv1.4; replicate 1): 0.0; Inhibition data, Kv1.4 (rKv1.4; replicate 2): 0.0; Inhibition data, Kv1.4 (rKv1.4; replicate 3): 0.0; Inhibition data, Kv1.4 (rKv1.4; replicate 4): 0.0
